Experimental data reported in article PMC10974290, “Biocatalytic Synthesis of Coumarin S-Glycosides: Towards Non-Cytotoxic Probes for Biomedical Imaging and Sensing” (Molecules, 2024).
pIC50: −log10 of the molar value.

Test system: HaCaT (keratinocyte normal skin)
Experiment: MTT cell proliferation assay, HaCaT
Format: cell-based
Settings: Homo sapiens, 72 h incubation, 95% confidence interval in parentheses
Procedure: (§1) To use these S-glycosidic compounds in cellulo, the potential impact of the glycosidic linkage nature on the anticancer activity was assessed. The S-glycoside derivatives and the 7-MC were tested against four human cancer cell lines and a healthy one, namely A549 (lung carcinoma), HS-683 (glioma cancer), MCF-7 (breast adenocarcinoma), SK-MEL-28 (melanoma skin cancer), and HaCaT (keratinocyte normal skin), using MTT (thiazolyl blue tetrazolium bromide, Sigma-Aldrich, St. Louis, MO, USA) assay, as previously described in the literature. The selected reference drugs were 5-fluorouracil (5-FU) and etoposide.
(§2) Cell proliferation of five distinct cell lines was evaluated using the colorimetric MTT (thiazolyl blue tetrazolium bromide, Sigma) assay. Human keratinocyte normal skin HaCaT was cultivated in DMEM supplemented with 4.5 g/L glucose, 2 mM L-glutamine, and 10% FBS. Cancer cell lines and their respective growth media were obtained from CLS Cell Line Service GmbH (Eppelheim, Germany). Specifically, human skin melanoma SK-MEL-28 and human brain glioma HS683 were cultivated in DMEM with identical supplements as HaCaT cells. The human lung carcinoma cell line A-549 was grown in DMEM/Ham’s F12 (1:1) medium supplemented with 2 mM L-glutamine and 5% FBS. Additionally, human breast adenoma carcinoma MCF-7 cells were sustained in EMEM supplemented with 2 mM L-glutamine, sodium pyruvate, non-essential amino acids (NEAAs), 10 µg/mL insulin human, and 10% FBS. The MTT assay relies on the reduction of the yellow product thiazolyl blue tetrazolium bromide (MTT) to formazan, a purple-blue product, by mitochondrial dehydrogenases in metabolically active cells. The number of living cells after incubation in the presence (or absence, control) of the tested molecules is directly proportional to the blue color, which was measured by spectrophotometry. To perform the assay, cells were initially seeded at a density of 2500 cells/mL in 96-well culture plates (Nunc™ Edge 2.0, Fisher) and allowed to adhere and proliferate over a 24-hour incubation period. Following this, the cells were treated with various concentrations of the tested compounds, which were previously prepared as serial dilutions and dissolved in 0.1% DMSO. These stable solutions guarantee the consistency of experimental conditions over extended periods. Each concentration of the tested compounds underwent triplicate testing (n = 3), and cells were subsequently incubated for 72 h to allow for thorough evaluation. Following this incubation period, MTT reagent (5 mg/mL solution in PBS) was introduced to each well (10% v/v), and cells were further incubated for 4 h. Then, the culture medium was carefully removed, and the resulting blue formazan crystals were dissolved in 100 µL of 100% DMSO. Absorbance readings were taken at 540 nm, referencing a wavelength of 620 nm, using a spectrophotometer. In determining the IC50, the absorbance of serial dilutions of each cell line, treated under identical conditions but without the presence of the tested compounds, was measured.

Q: With `Cc1cc(=O)oc2cc(S[C@@H]3O[C@H](C(=O)O)[C@@H](O)[C@H](O)[C@H]3O)ccc12` [Compound S-1, 4-Methylumbellifer-7-yl 1-thio-β-D-glucopyranosiduronic acid] as the compound, how does the pIC50 read?
A: Its pIC50 is under 3.00.

Q: With `Cc1cc(=O)oc2cc(S[C@@H]3OC[C@@H](O)[C@H](O)[C@H]3O)ccc12` [Compound S-2, 4-Methylumbellifer-7-yl 1-thio-β-D-xylopyranoside] as the compound, how does the pIC50 read?
A: Its pIC50 is 3.79.

Q: With `Cc1cc(=O)oc2cc(S[C@@H]3O[C@H](CO)[C@@H](O)[C@H](O)[C@H]3O)ccc12` [Compound S-3, 4-Methylumbellifer-7-yl 1-thio-β-D-glucopyranoside] as the compound, how does the pIC50 read?
A: Its pIC50 is under 3.00.

Test system: HS683 (brain glioma)
Experiment: MTT cell proliferation assay, HS683
Format: cell-based
Settings: Homo sapiens, Hs 683, 72 h incubation, 95% confidence interval in parentheses
Procedure: as §1, §2

Q: With `Cc1cc(=O)oc2cc(S[C@@H]3O[C@H](C(=O)O)[C@@H](O)[C@H](O)[C@H]3O)ccc12` [Compound S-1, 4-Methylumbellifer-7-yl 1-thio-β-D-glucopyranosiduronic acid] as the compound, how does the pIC50 read?
A: The pIC50 was under 3.00.

Q: With `Cc1cc(=O)oc2cc(S[C@@H]3OC[C@@H](O)[C@H](O)[C@H]3O)ccc12` [Compound S-2, 4-Methylumbellifer-7-yl 1-thio-β-D-xylopyranoside] as the compound, how does the pIC50 read?
A: Its pIC50 is 3.56.

Q: With `Cc1cc(=O)oc2cc(S[C@@H]3O[C@H](CO)[C@@H](O)[C@H](O)[C@H]3O)ccc12` [Compound S-3, 4-Methylumbellifer-7-yl 1-thio-β-D-glucopyranoside] as the compound, how does the pIC50 read?
A: The pIC50 was under 3.00.

Test system: MCF-7 (breast adenocarcinoma)
Experiment: MTT cell proliferation assay, MCF-7
Format: cell-based
Settings: Homo sapiens, MCF7, 72 h incubation, 95% confidence interval in parentheses
Procedure: as §1, §2

Q: With `Cc1cc(=O)oc2cc(S[C@@H]3O[C@H](C(=O)O)[C@@H](O)[C@H](O)[C@H]3O)ccc12` [Compound S-1, 4-Methylumbellifer-7-yl 1-thio-β-D-glucopyranosiduronic acid] as the compound, how does the pIC50 read?
A: The pIC50 was under 3.00.

Q: With `Cc1cc(=O)oc2cc(S[C@@H]3OC[C@@H](O)[C@H](O)[C@H]3O)ccc12` [Compound S-2, 4-Methylumbellifer-7-yl 1-thio-β-D-xylopyranoside] as the compound, how does the pIC50 read?
A: Its pIC50 is 3.89.

Q: With `Cc1cc(=O)oc2cc(S[C@@H]3O[C@H](CO)[C@@H](O)[C@H](O)[C@H]3O)ccc12` [Compound S-3, 4-Methylumbellifer-7-yl 1-thio-β-D-glucopyranoside] as the compound, how does the pIC50 read?
A: Its pIC50 is under 3.00.

Test system: not listed separately
Experiment: UV-visible absorbance spectroscopy
Format: physicochemical
Settings: DMF, 0.1 mM; 7-MC + DTT 10 mM
Procedure: Subsequently, the analysis was carried out under two distinct conditions: firstly, in DMF, at a final concentration of 0.1 mM; and secondly, in a mixture PBS:DMF (99:1%), at the same final concentration of 0.1 mM. These two experimental setups provided valuable insights into the spectral characteristics of the compounds in both a pure organic solvent and a solvent system closely resembling physiological conditions. The maxima absorption wavelengths are compiled in Table 3. These bands were attributed to transitions within the benzene and pyrone moieties, considered together as a single chromophore. […] Similarly, 7-MC and S-1 to S-6 compounds also absorb in this UV range (λmax = 328–330 nm). […] In the organic solvent, these values are found to be higher compared to those calculated for 4-MUB and 7-MC. Conversely, in PBS, the extinction coefficients for S-glycosides are lower compared to the parent thiol 7-MC. This highlights the profound impact of glycosylation on absorption properties, as well as the importance of solvent choice.
Both absorbance and fluorescence spectra were measured on a Tecan […] M PLEX 200 Pro plate reader equipped with monochromator allowing a scan from 230 to 1000 nm. All synthesized molecules were initially dissolved in 10 mM DMF and subsequently diluted in freshly prepared PBS (pH = 7.4) to achieve a final concentration of 0.1 mM. The solutions were then transferred to a Corning (Corning, NY, USA) UV-transparent 96-well plate. Absorbance spectra were recorded from 230 to 800 nm. Emission fluorescence spectra were recorded from 320 to 800 nm, under excitation at 280 nm. Excitation fluorescence spectra were recorded from 230 to 380 nm for an emission at 420 nm. All spectra were recorded with a wavelength step size of 2 nm. Data processing was performed with Excel software 2016. Fluorescence spectra are presented as normalized spectra ranging from 0 to 1. The relative quantum yields were calculated according to Equation (1):(1) ΦT=(AR/AT)×(FT/FR)×[…]×ΦR where Φ is the fluorescence quantum yield, A is the absorbance at the excitation wavelength, F is the area under the corrected emission curve, and n is the refractive index of the solvent for the test compound (T) and the reference (R). The 4-MUB value in DMF was used as the reference. The LOD (resp. LOQ) values were determined as the minimal concentration of product S-3 required to yield a fluorescence that was twice greater than (respectively, 5-times that of) the fluorescence noise on a sample containing PBS, using an excitation wavelength of 280 nm and an emission wavelength of 386 nm (Figure S44).

Q: Which “emax (molar absorption coefficient)” value does the source give for `Cc1cc(=O)oc2cc(S[C@@H]3O[C@H](C(=O)O)[C@@H](O)[C@H](O)[C@H]3O)ccc12` [Compound S-1, 4-Methylumbellifer-7-yl 1-thio-β-D-glucopyranosiduronic acid] here?
A: The value was 26660,51579 cm-1 M-1.

Q: Which “emax (molar absorption coefficient)” value does the source give for `Cc1cc(=O)oc2cc(S[C@@H]3O[C@H](CO)[C@@H](O)[C@H](O)[C@H]3O)ccc12` [Compound S-3, 4-Methylumbellifer-7-yl 1-thio-β-D-glucopyranoside] here?
A: The value was 18634,68658 cm-1 M-1.

Same assay, conditions: DMF, 0.1 mM; 7-MC in presence of 10 mM DTT

Q: Which results are given for `Cc1cc(=O)oc2cc(S[C@@H]3O[C@H](C(=O)O)[C@@H](O)[C@H](O)[C@H]3O)ccc12` [Compound S-1, 4-Methylumbellifer-7-yl 1-thio-β-D-glucopyranosiduronic acid]?
A: Absorbance ε (molar absorption coefficient): 26.7 10^3 M^−1 cm^−1; Absorbance λmax abs: 330 nm

Q: Which “Absorbance ε (molar absorption coefficient)” value does the source give for `Cc1cc(=O)oc2cc(S[C@@H]3OC[C@@H](O)[C@H](O)[C@H]3O)ccc12` [Compound S-2, 4-Methylumbellifer-7-yl 1-thio-β-D-xylopyranoside] here?
A: Its value is 19.5 10^3 M^−1 cm^−1.

Q: What about the “Absorbance λmax abs” value of the same compound?
A: Its value is 330 nm.

Q: What does the source list for `Cc1cc(=O)oc2cc(S[C@@H]3O[C@H](CO)[C@@H](O)[C@H](O)[C@H]3O)ccc12` [Compound S-3, 4-Methylumbellifer-7-yl 1-thio-β-D-glucopyranoside]?
A: Absorbance ε (molar absorption coefficient): 18.6 10^3 M^−1 cm^−1; Absorbance λmax abs: 330 nm

Same assay, conditions: PBS 1x (pH = 7.4), 0.1 mM; 7-MC + DTT 10 mM

Q: Which “emax (molar absorption coefficient)” value does the source give for `Cc1cc(=O)oc2cc(S[C@@H]3O[C@H](C(=O)O)[C@@H](O)[C@H](O)[C@H]3O)ccc12` [Compound S-1, 4-Methylumbellifer-7-yl 1-thio-β-D-glucopyranosiduronic acid] here?
A: Its value is 23328,41338 cm-1 M-1.

Q: Which “emax (molar absorption coefficient)” value does the source give for `Cc1cc(=O)oc2cc(S[C@@H]3OC[C@@H](O)[C@H](O)[C@H]3O)ccc12` [Compound S-2, 4-Methylumbellifer-7-yl 1-thio-β-D-xylopyranoside] here?
A: The value was 26044,28033 cm-1 M-1.

Q: For `Cc1cc(=O)oc2cc(S[C@@H]3O[C@H](CO)[C@@H](O)[C@H](O)[C@H]3O)ccc12` [Compound S-3, 4-Methylumbellifer-7-yl 1-thio-β-D-glucopyranoside], which “emax (molar absorption coefficient)” value is on record?
A: Its value is 20778,59706 cm-1 M-1.

Same assay, conditions: PBS (PBS:DMF 99:1, pH 7.4), 0.1 mM; 7-MC in presence of 10 mM DTT

Q: Which results are given for `Cc1cc(=O)oc2cc(S[C@@H]3O[C@H](C(=O)O)[C@@H](O)[C@H](O)[C@H]3O)ccc12` [Compound S-1, 4-Methylumbellifer-7-yl 1-thio-β-D-glucopyranosiduronic acid]?
A: Absorbance ε (molar absorption coefficient): 23.3 10^3 M^−1 cm^−1; Absorbance λmax abs: 326 nm

Q: Which “Absorbance ε (molar absorption coefficient)” value does the source give for `Cc1cc(=O)oc2cc(S[C@@H]3OC[C@@H](O)[C@H](O)[C@H]3O)ccc12` [Compound S-2, 4-Methylumbellifer-7-yl 1-thio-β-D-xylopyranoside] here?
A: The value was 26.0 10^3 M^−1 cm^−1.

Q: And the “Absorbance λmax abs” value?
A: Its value is 324 nm.

Q: What does the source list for `Cc1cc(=O)oc2cc(S[C@@H]3O[C@H](CO)[C@@H](O)[C@H](O)[C@H]3O)ccc12` [Compound S-3, 4-Methylumbellifer-7-yl 1-thio-β-D-glucopyranoside]?
A: Absorbance ε (molar absorption coefficient): 20.8 10^3 M^−1 cm^−1; Absorbance λmax abs: 326 nm
